Counter-ions that a name gives are not always drawn.
Experiments:
Human COX-1 [1] = biological target: T1, Human COX-1 (Homo sapiens, UniProt P23219); test: Assay for COX-1 and COX-2 activity (PGE2 ELISA, recombinant enzyme), COX-1; assay type: biochemical; settings: Table I; pre-incubated 10-20 minutes, arachidonic acid 10 μM, stopped after ten minutes, pH 8.0
T1 construct: A 2.0 kb fragment containing the coding region of either human or murine COX-1 or human or murine COX-2; made in house; host or cells: SF9 insect cells (baculovirus, transfer vector pVL1393)
Procedure: (§1) Recombinant baculoviruses were isolated by transfecting 4 μg of baculovirus transfer vector DNA into SF9 insect cells (2×10^8) along with 200 ng of linearized baculovirus plasmid DNA by the calcium phosphate method. See M. D. Summers and G. E. Smith, A Manual of Methods for Baculovirus Vectors and Insect Cell Culture Procedures, Texas Agric. Exp. Station Bull. […] Recombinant viruses were purified by three rounds of plaque purification and high titer (10^7-10^8 pfu/mL) stocks of virus were prepared. For large scale production, SF9 insect cells were infected in 10 liter fermentors (0.5×10^6/mL) with the recombinant baculovirus stock such that the multiplicity of infection was 0.1. After 72 hours the cells were centrifuged and the cell pellet homogenized in Tris/Sucrose (50 mM: 25%, pH 8.0) containing 1% 3-[(3-cholamidopropyl)dimethylammonio]-1-propanesulfonate (CHAPS). The homogenate was centrifuged at 10,000×G for 30 minutes, and the resultant supernatant was stored at −80° C. before being assayed for COX activity.
COX activity was assayed as PGE2 formed/μg protein/time using an ELISA to detect the prostaglandin released. CHAPS-solubilized insect cell membranes containing the appropriate COX enzyme were incubated in a potassium phosphate buffer (50 mM, pH 8.0) containing epinephrine, phenol, and heme with the addition of arachidonic acid (10 μM). Compounds were pre-incubated with the enzyme for 10-20 minutes prior to the addition of arachidonic acid. […] The PGE2 formed was measured by standard ELISA technology (Cayman Chemical).

Human COX-2 [2] = biological target: T2, Human COX-2 (Homo sapiens, UniProt P35354); test: Fast assay for COX-1 and COX-2 activity (PGE2 ELISA), COX-2; assay type: biochemical; settings: Table II, pre-incubated 10 minutes at 25° C., arachidonic acid 10 μM, stopped after two minutes, pH 7.5
T2 construct: A 2.0 kb fragment containing the coding region of either human or murine COX-1 or human or murine COX-2; made in house; host or cells: SF9 insect cells (baculovirus, transfer vector pVL1393)
T2 sequence (P35354 18-604): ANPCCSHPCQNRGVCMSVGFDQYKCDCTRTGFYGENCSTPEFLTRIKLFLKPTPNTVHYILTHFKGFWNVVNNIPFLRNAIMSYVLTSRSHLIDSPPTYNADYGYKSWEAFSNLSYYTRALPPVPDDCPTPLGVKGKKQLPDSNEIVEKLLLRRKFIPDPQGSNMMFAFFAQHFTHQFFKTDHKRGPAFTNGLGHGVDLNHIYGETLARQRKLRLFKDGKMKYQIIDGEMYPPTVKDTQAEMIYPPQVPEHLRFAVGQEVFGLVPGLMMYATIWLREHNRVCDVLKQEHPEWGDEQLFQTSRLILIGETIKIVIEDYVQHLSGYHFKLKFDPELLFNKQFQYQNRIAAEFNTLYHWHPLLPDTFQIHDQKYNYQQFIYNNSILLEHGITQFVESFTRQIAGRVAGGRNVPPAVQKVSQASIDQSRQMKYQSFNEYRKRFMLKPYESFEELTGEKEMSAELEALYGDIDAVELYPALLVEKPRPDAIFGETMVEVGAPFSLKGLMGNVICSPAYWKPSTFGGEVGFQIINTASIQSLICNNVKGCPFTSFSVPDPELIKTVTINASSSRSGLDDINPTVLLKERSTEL
Procedure: (§2) Recombinant COX-1 and COX-2 were prepared as described by Gierse et al, [[…]., 305, 479-84 (1995)]. A 2.0 kb fragment containing the coding region of either human or murine COX-1 or human or murine COX-2 was cloned into a BamH1 site of the baculovirus transfer vector pVL1393 (Invitrogen) to generate the baculovirus transfer vectors for COX-1 and COX-2 in a manner similar to the method of D. R. O'Reilly et al (Baculovirus Expression Vectors: A Laboratory Manual (1992)). Recombinant baculoviruses were isolated by transfecting 4 μg of baculovirus transfer vector DNA into SF9 insect cells (2×10^8) along with 200 ng of linearized baculovirus plasmid DNA by the calcium phosphate method. See M. D. Summers and G. E. Smith, A Manual of Methods for Baculovirus Vectors and Insect Cell Culture Procedures, Texas Agric. Exp. Station Bull. 1555 (1987). Recombinant viruses were purified by three rounds of plaque purification and high titer (10^7-10^8 pfu/mL) stocks of virus were prepared. For large scale production, SF9 insect cells were infected in 10 liter fermentors (0.5×10^6/mL) with the recombinant baculovirus stock such that the multiplicity of infection was 0.1. After 72 hours the cells were centrifuged and the cell pellet homogenized in Tris/Sucrose (50 mM: 25%, pH 8.0) containing 1% 3-[(3-cholamidopropyl)dimethylammonio]-1-propanesulfonate (CHAPS). The homogenate was centrifuged at 10,000×G for 30 minutes, and the resultant supernatant was stored at −80° C. before being assayed for COX activity.
(§3) COX activity was assayed as PGE2 formed/μg protein/time using an ELISA to detect the prostaglandin released. CHAPS-solubilized insect cell membranes containing the appropriate COX enzyme were incubated in a potassium phosphate buffer (0.05 M Potassium phosphate, pH 7.5, 2 μM phenol, 1 μM heme, 300 μM epinephrine) with the addition of 20 μl of 100 μM arachidonic acid (10 μM). Compounds were pre-incubated with the enzyme for 10 minutes at 25° C. prior to the addition of arachidonic acid. Any reaction between the arachidonic acid and the enzyme was stopped after two minutes at 37° C./room temperature by transferring 40 μl of reaction mix into 160 μl ELISA buffer and 25 μM indomethacin. The PGE2 formed was measured by standard ELISA technology (Cayman Chemical).

Human COX-1 [3] = biological target: T1, Human COX-1; test: Fast assay for COX-1 and COX-2 activity (PGE2 ELISA), COX-1; assay type: biochemical; settings: Table II, pre-incubated 10 minutes at 25° C., arachidonic acid 10 μM, stopped after two minutes, pH 7.5
Procedure: as §1
as §3, with “Any reaction between the arachidonic acid and the enzyme was stopped after two minutes at 37° C./room temperature by transferring 40 μl of reaction mix into 160 μl ELISA buffer and 25 μM indomethacin.” left out

Human COX-2 [4] = biological target: T2, Human COX-2; test: Assay for COX-1 and COX-2 activity (PGE2 ELISA, recombinant enzyme), COX-2; assay type: biochemical; settings: Table I; pre-incubated 10-20 minutes, arachidonic acid 10 μM, stopped after ten minutes, pH 8.0
Procedure: The COX-2 inhibition activity of the compounds of this invention illustrated in the Examples was determined by the following methods.
as §2
COX activity was assayed as PGE2 formed/μg protein/time using an ELISA to detect the prostaglandin released. CHAPS-solubilized insect cell membranes containing the appropriate COX enzyme were incubated in a potassium phosphate buffer (50 mM, pH 8.0) containing epinephrine, phenol, and heme with the addition of arachidonic acid (10 μM). Compounds were pre-incubated with the enzyme for 10-20 minutes prior to the addition of arachidonic acid. Any reaction between the arachidonic acid and the enzyme was stopped after ten minutes at 37° C./room temperature by transferring 40 μl of reaction mix into […] and 25 μM indomethacin. The PGE2 formed was measured by standard ELISA technology (Cayman Chemical).

T1 sequence (P23219 24-599): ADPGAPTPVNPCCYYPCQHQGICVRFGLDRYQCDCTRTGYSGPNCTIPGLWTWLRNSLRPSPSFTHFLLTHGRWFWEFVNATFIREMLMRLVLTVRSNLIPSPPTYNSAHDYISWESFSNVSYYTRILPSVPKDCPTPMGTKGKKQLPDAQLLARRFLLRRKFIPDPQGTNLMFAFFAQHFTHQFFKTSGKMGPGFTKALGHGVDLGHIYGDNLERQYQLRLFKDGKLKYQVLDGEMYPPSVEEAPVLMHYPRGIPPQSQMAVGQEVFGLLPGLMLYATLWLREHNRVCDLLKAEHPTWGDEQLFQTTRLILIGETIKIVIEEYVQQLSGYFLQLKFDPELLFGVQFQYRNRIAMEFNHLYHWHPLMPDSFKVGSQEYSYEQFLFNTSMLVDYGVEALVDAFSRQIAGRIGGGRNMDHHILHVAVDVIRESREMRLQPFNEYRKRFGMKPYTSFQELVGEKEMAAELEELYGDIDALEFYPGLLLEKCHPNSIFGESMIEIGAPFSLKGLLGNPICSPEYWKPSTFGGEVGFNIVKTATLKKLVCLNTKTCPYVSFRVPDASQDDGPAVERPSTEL

SMILES | IC50 (Human COX-1 [1]) [µM] | IC50 (Human COX-2 [2]) [nM] | IC50 (Human COX-1 [3]) [µM] | IC50 (Human COX-2 [4]) [nM] | melting point [°C]
COc1ccc(-c2cc(C(F)(F)F)nn2-c2ccc(S(N)(=O)=O)c(F)c2)cc1F [Example 6, 4-[5-(3-Fluoro-4-methoxy)-3-trifluoromethyl-1H-pyrazol-1-yl]-2-fluorobenzenesulfonamide] | 45.6 | 18 | > 100 | 25 | 
CS(=O)(=O)c1ccc(-c2cc(C(F)F)nn2C2CCCCC2)cc1F (as salt: trifluoroacetate) [Example 19, 1-Cyclohexyl-3-(difluoromethyl)-5-[3-fluoro-4-(methylsulfonyl)phenyl]-1H-pyrazole] |  |  |  |  | 138 to 139
CS(=O)(=O)c1ccc(-c2cc(C(F)F)nn2C2CCCCC2)cc1F [Example 19, 1-Cyclohexyl-3-(difluoromethyl)-5-[3-fluoro-4-(methylsulfonyl)phenyl]-1H-pyrazole] | > 100 | 340 | > 100 | 700 | 
CS(=O)(=O)c1ccc(-c2cc(C(F)F)nn2-c2ccc(F)cc2)cc1F [Example 18, 3-(Difluoromethyl)-5-[3-fluoro-4-(methylsulfonyl)phenyl]-1-(4-fluorophenyl)-1H-pyrazole] | > 100 | 310 | > 100 | 320 | 
Cc1ccc(-n2nc(C(F)F)cc2-c2ccc(S(C)(=O)=O)c(F)c2)cc1Cl [Example 20, 1-(3-Chloro-4-methylphenyl)-3-(difluoromethyl)-5-[3-fluoro-4-(methylsulfonyl)phenyl]-1H-pyrazole] | > 100 | 53 | > 100 | 36 | 
COc1ccc(-c2cc(C(F)(F)F)nn2-c2ccc(S(N)(=O)=O)c(F)c2)cc1 [Example 7, 2-Fluoro-4-[5-(4-methoxyphenyl)-3-(trifluoromethyl)-1H-pyrazol-1-yl]benzenesulfonamide] |  | 4 |  | 5 | 
CS(=O)(=O)c1ccc(-c2cc(C(F)F)nn2-c2cccc(C(F)(F)F)c2)cc1F (as salt: trifluoroacetate) [Example 21] |  |  |  |  | 110 to 111
Cc1ccc(-n2nc(C(F)F)cc2-c2ccc(S(C)(=O)=O)c(F)c2)cc1Cl (as salt: trifluoroacetate) [Example 20, 1-(3-Chloro-4-methylphenyl)-3-(difluoromethyl)-5-[3-fluoro-4-(methylsulfonyl)phenyl]-1H-pyrazole] |  |  |  |  | 146 to 147
CS(=O)(=O)c1ccc(-c2cc(C(F)F)nn2-c2ccc(F)cc2)cc1F (as salt: trifluoroacetate) [Example 18, 3-(Difluoromethyl)-5-[3-fluoro-4-(methylsulfonyl)phenyl]-1-(4-fluorophenyl)-1H-pyrazole] |  |  |  |  | 201 to 202

Further lines, results first:

IC50 (Human COX-1 [1]) [µM] | IC50 (Human COX-2 [2]) [nM] | IC50 (Human COX-1 [3]) [µM] | IC50 (Human COX-2 [4]) [nM] | melting point [°C] | SMILES
40.5 | 6 | 20.3 | 19 |  | Cc1ccc(-c2cc(C(F)(F)F)nn2-c2ccc(S(N)(=O)=O)c(F)c2)cc1 [Example 4, 4-[5-(4-Methylphenyl)-3-(trifluoromethyl)-1H-pyrazol-1-yl]-2-fluorobenzenesulfonamide]
 |  |  |  | 159 to 160 | COc1ccccc1-c1cc(C(F)(F)F)nn1-c1ccc(S(N)(=O)=O)c(F)c1 (as salt: trifluoroacetate) [Example 9, 2-Fluoro-4-[5-(2-methoxyphenyl)-3-(trifluoromethyl)-1H-pyrazol-1-yl]benzenesulfonamide]
45.9 | 4 | 19.9 | 5 |  | NS(=O)(=O)c1ccc(-n2nc(C(F)(F)F)cc2-c2ccc(Cl)cc2)cc1F [Example 5, 4-[5-(4-Chlorophenyl)-3-trifluoromethyl-1H-pyrazol-1-yl]-2-fluorobenzenesulfonamide]
 |  |  |  | 126 to 128 | Cc1ccc(-c2cc(C(F)(F)F)nn2-c2ccc(S(N)(=O)=O)c(F)c2)cc1 (as salt: trifluoroacetate) [Example 4, 4-[5-(4-Methylphenyl)-3-(trifluoromethyl)-1H-pyrazol-1-yl]-2-fluorobenzenesulfonamide]
 |  |  |  | 127 to 130 | NS(=O)(=O)c1ccc(-n2nc(C(F)(F)F)cc2-c2ccc(F)cc2)cc1F (as salt: trifluoroacetate) [Example 8, 2-Fluoro-4-[5-(4-fluorophenyl)-3-(trifluoromethyl)-1H-pyrazol-1-yl]benzenesulfonamide]
 |  |  |  | 180 to 182 | Cc1onc(-c2ccccc2)c1-c1ccc(S(N)(=O)=O)c(F)c1 [Example 23]
> 100 |  |  | 110 | 167 to 169 | COc1ccc(-c2cc(C(F)F)nn2-c2ccc(S(N)(=O)=O)c(F)c2)cc1F [Example 10, 4-[3-(Difluoromethyl)-5-(3-fluoro-4-methoxyphenyl)-1H-pyrazol-1-yl]-2-fluorobenzenesulfonamide]
 |  |  |  | 124 to 126 | COc1ccc(-c2cc(C(F)(F)F)nn2-c2ccc(S(N)(=O)=O)c(F)c2)cc1F (as salt: trifluoroacetate) [Example 6, 4-[5-(3-Fluoro-4-methoxy)-3-trifluoromethyl-1H-pyrazol-1-yl]-2-fluorobenzenesulfonamide]
 |  |  |  | 140 to 141 | NS(=O)(=O)c1ccc(-n2nc(C(F)(F)F)cc2-c2ccc(Cl)cc2)cc1F (as salt: trifluoroacetate) [Example 5, 4-[5-(4-Chlorophenyl)-3-trifluoromethyl-1H-pyrazol-1-yl]-2-fluorobenzenesulfonamide]

— US20020183362A1, “2-Fluorobenzenesulfonyl compounds for the treatment of inflammation” (Pharmacia Corporation, priority 2000, published 2002)
